Data on 1 compound can be found in patent US5618830A (priority 1995, dated 1997).

One assay addresses T1, Hela DNA Polymerase-a (Homo sapiens, UniProt P09884).
T1 construct: Hela cell DNA polymerase α; endogenous in cells; host or cells: HeLa cells
T1 sequence (P09884 1-1462): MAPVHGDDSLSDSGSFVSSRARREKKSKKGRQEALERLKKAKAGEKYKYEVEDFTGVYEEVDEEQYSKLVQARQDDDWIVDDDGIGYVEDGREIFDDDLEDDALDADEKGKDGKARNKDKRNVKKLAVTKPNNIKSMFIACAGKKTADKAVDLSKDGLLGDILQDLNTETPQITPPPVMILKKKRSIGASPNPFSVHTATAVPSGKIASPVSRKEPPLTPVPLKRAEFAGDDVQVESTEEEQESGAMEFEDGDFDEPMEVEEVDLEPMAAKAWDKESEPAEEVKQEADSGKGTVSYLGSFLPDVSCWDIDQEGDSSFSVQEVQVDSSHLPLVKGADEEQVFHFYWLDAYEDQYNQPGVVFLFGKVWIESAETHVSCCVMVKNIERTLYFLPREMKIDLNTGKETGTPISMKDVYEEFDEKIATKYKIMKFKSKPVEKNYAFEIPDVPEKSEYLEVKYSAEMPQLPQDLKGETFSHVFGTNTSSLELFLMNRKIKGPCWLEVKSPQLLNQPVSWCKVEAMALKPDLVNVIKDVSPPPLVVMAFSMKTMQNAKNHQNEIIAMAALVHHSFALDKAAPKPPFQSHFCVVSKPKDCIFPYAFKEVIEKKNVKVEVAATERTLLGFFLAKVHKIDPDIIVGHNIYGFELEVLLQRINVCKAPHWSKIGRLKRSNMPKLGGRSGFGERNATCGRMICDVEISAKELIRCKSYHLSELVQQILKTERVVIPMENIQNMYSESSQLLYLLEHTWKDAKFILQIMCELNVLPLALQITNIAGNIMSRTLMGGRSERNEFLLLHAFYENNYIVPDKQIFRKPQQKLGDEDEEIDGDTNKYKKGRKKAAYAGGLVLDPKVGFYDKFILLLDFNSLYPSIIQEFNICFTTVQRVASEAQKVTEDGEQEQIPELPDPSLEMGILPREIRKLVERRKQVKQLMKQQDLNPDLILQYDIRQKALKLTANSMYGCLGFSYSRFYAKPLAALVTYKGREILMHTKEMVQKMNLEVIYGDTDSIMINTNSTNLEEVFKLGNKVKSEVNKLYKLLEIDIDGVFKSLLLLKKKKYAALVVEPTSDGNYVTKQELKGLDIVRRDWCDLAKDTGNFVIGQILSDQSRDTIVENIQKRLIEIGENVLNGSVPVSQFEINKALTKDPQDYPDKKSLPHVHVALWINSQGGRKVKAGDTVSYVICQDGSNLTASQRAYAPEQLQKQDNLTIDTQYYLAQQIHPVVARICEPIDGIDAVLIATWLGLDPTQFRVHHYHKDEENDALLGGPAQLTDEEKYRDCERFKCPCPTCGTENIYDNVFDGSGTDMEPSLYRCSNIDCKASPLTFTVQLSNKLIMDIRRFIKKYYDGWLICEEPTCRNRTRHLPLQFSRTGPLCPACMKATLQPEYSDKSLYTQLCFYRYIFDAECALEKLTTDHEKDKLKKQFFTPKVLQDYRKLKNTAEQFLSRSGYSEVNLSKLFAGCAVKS
In words: Hela DNA Polymerase-a assay. It is filed as biochemical.

For assay [1], the target named is cap-independent influenza transcription primed with ApG (Influenza A virus, UniProt P03431). Put plainly: biochemical.
Another assay deals with T7 Phage RNA Polymerase (Escherichia phage T7, UniProt P00573). In words: T7 Phage RNA Polymerase assay. It is filed as biochemical.
For assay [2], the target named is EcoRI Restriction Endonuclease (Escherichia coli, UniProt P00642). Put plainly: EcoRI Restriction Endonuclease assay. It counts as biochemical.
Assay [3] addresses influenza virus transcription (Influenza A virus (A/Port Chalmers/1/1973(H3N2)), UniProt Q1PUD2). It is filed as biochemical, influenza virus A/Port Chalmers/1/73 (H3N2). The settings on record: read-out: IC50, inhibition of influenza virus transcription.
Assay [4] deals with influenza transcription (flu APR8 virus) (Influenza A virus, UniProt P03433). In words: biochemical. The arrangement: species or system influenza virus A/PR/8/34 (H1N1).
A further assay deals with RNase A (Bos taurus, UniProt P61823). In words: RNase A assay.
The target of assay [5] is influenza virus transcription (Influenza A virus (A/Japan/305-/1957(H2N2)), UniProt Q1K9Q4). It counts as biochemical, influenza virus A/Japan/305/57 (H2N2). The settings on record: read-out: IC50, inhibition of influenza virus transcription; virus strain A/Japan/305/57 (H2N2); primed with cap1 ALMV.
The target of a further assay is HIV RNase H (Human immunodeficiency virus type 1 group M subtype B, UniProt P04585). In words: HIV RNase H assay. It counts as biochemical.
The target of a further assay is VSV transcription (Vesicular stomatitis Indiana virus, UniProt P03523). In words: biochemical.
Assay [6] deals with influenza virus transcription. In words: in vitro transcription primed with cap1 ALMV, B/Hong Kong/5/72. It counts as biochemical, influenza virus B/Hong Kong/5/72. The settings on record: virus strain B/Hong Kong/5/72, read-out: IC50, inhibition of influenza virus transcription.
The next assay addresses RNase T1 (Aspergillus oryzae, UniProt P00651). Put plainly: RNase T1 assay.
Another assay concerns the target Influenza Endonuclease (Influenza A virus, UniProt P03433). Put plainly: biochemical.
The target of assay [7] is influenza virus transcription (Influenza A virus (A/nt/60/1968(H3N2)), UniProt P03434). It is filed as biochemical, influenza virus A/Hong Kong/8/68 (H3N2). Conditions: read-out: IC50, inhibition of influenza virus transcription; virus strain A/Hong Kong/8/68 (H3N2); primed with cap1 ALMV.
Another assay deals with T2, Hela RNA Polymerase II (Homo sapiens, UniProt P24928).
T2 construct: Hela RNA polymerase II in Hela extract; endogenous in cells; host or cells: HeLa extract
Put plainly: Hela RNA polymerase II run-off transcription. It is filed as biochemical. On the procedure:
d. Hela RNA polymerase II-Compounds or DMSO were incubated in a run-off transcription assay using Hela RNA polymerase II in Hela extract with 50 ng/μl of pD5 template (Adeno major late promoter) in a final reaction containing 500 μM A,C,GTP and 0.5 μM [32]P-UTP in 15 mM Tris-HCl, pH 7.9/7.0 mM MGCl2 /32 mM (NH4)2 SO4 /0.2 mM EDTA/1.3 mM DTT for 60 min at 30° C. Following ethanol precipitation, reaction products were electrophoresed on 8% polyacrylamide gels containing 7M urea.

The next assay addresses RNase U2 (Ustilago sphaerogena, UniProt P00654). In words: RNase U2 assay.

Where a name gives a salt, the structure may show the parent alone. Read-outs that look alike come from different tables or passages of the source. A value given as a limit tells only on which side of the number the result lay.

For `O=C(O)C(=O)CC(=O)C1(Cc2ccc(Cl)cc2)CCCN(Cc2ccccc2)C1` (centres unmarked) [Compound A, 4-[N-benzyl-3-(4-chlorobenzyl)piperidin-3-yl]2,4-dioxobutanoic acid hydrochloride], the IC50 against Hela DNA Polymerase-a was > 100 µM; in [1], > 1000 µM; against T7 Phage RNA Polymerase it was > 100 µM; in assay [2], > 500 µM; in assay [3], 0.5 µM; in assay [4] it was 1.1 µM. Besides, the IC50 in assay [4] (read-out: IC50, inhibition of influenza virus transcription) was 1.1 µM; against RNase A it was > 200 µM; in assay [5] it was 0.25 µM; at HIV RNase H it was 100 µM; at VSV transcription it was > 500 µM; in assay [6], 0.85 µM. The IC50 is > 200 µM against RNase T1; 1.8 µM at Influenza Endonuclease; 0.62 µM in assay [7]; > 500 µM against Hela RNA Polymerase II; > 200 µM at RNase U2.

Broadly, the IC50 is the concentration that inhibits the measured activity by half.
